Literature values as cited in patent US10487297B2, “Environmentally preferred antimicrobial compositions” (CHEMLINK LABORATORIES, LLC, priority 2013, dated 2019).

Question: For `CC(=O)N(CCN(C(C)=O)C(C)=O)C(C)=O` [TAED, N,N,N′N′-tetraacetylethylenediamine], which pKa is on record?
Answer: 8
